From patent US20130172345A1, “1-ACYL-4-(PHENOXY, BENZYLOXY, OR PHENYLAMINO)-1,2,3,4-TETRAHYDROQUINOLINE DERIVATIVES” (KOWA COMPANY, LTD., priority 2007, published 2013)
Where a name gives a salt, the structure may show the parent alone.

Test system: K562 cells, human proerythroblast cells
Experiment: Hemoglobin production in K562 cells (fluorescence of the porphyrin ring)
Format: cell-based
Conditions: 144 h, test compound 6 μM, 3+3 days, non-stimulated state = 100%, read-out: production amount of hemoglobin, % of control (6 μM)
Description: K562 cells (obtained from ATCC), which are human proerythroblast cells, were seeded at a density of 1×10^5 cells/1 mL on a 24-well plate by using complete medium (RPMI-1640 medium comprising 10% bovine fetal serum). After adding the test compound having 1000× concentration (1 μL), the cells were incubated for three days in a CO2 incubator (37° C., 5% CO2). After exchanging the medium, the cells were further incubated for three days. Then, the cells were collected and counted. After adjusting them to have 3×10^5 cells, the amount of hemoglobin produced in the cells was determined by measuring fluorescence of the porphyrin ring. Specifically, the cells which had been collected by centrifugation were suspended in 2 M oxalic acid solution (500 μL) and boiled for 30 minutes under heating. After cooling the cells, the fluorescence intensity was measured by Fluorescence micro plate reader (Spectra MAX GeminiEM, manufactured by Molecular Devices Corporation) ([…]). When hemoglobin amount in non-stimulated state, i.e., without addition of any compound, was 100%, the production amount of hemoglobin induced by each compound was calculated (% of control).

Compound	activity at 6 µM [%]
CC(=O)N1c2c(Br)cccc2C(Nc2ccccc2)CC1C (centres unmarked) [Compound 63, 1-acetyl-8-bromo-4-phenylamino-2-methyl-1,2,3,4-tetrahydroquinoline]	98
CC(=O)N1c2ccc(C(=O)N3CCOCC3)cc2C(Nc2ccc(Cl)cc2)CC1C (centres unmarked) [Compound 93, 1-acetyl-4-[(4-chlorophenyl)amino]-6-[(1-morpholino)carbonyl]-2-methyl-1,2,3,4-tetrahydroquinoline.hydrochloride]	245
CC(=O)N1c2cc(F)ccc2[C@H](Nc2cccc(F)c2)C[C@@H]1C (relative stereo) [Compound 58, cis-1-acetyl-7-fluoro-4-[(3-fluorophenyl)amino]-2-methyl-1,2,3,4-tetrahydroquinoline]	107
CCN(CC)C(=O)N1CCN(c2ccc3c(c2)C(Nc2ccc(Cl)cc2)CC(C)N3C(C)=O)CC1 (centres unmarked) [Compound 87, 1-acetyl-4-[(4-chlorophenyl)amino]-6-[4-(N,N-diethylaminocarbonyl)piperazino]-2-methyl-1,2,3,4-tetrahydroquinoline]	262
CC(=O)N1CC(C)(C)C(Nc2ccccc2)c2ccccc21 (stereo not drawn) [Compound 60, cis-1-acetyl-3,3-dimethyl-4-phenylamino-1,2,3,4-tetrahydroquinoline]	113
CCC1CC(Nc2ccccc2)c2ccccc2N1C(C)=O (centres unmarked) [Compound 59, 1-acetyl-2-ethyl-4-phenylamino-1,2,3,4-tetrahydroquinoline]	108
CC(=O)N1c2ccccc2[C@H](Nc2ccc(Cc3ccccc3)cc2)C[C@@H]1C (relative stereo) [Compound 112, cis-1-acetyl-4-[(4-benzylphenyl)amino]-2-methyl-1,2,3,4-tetrahydroquinoline]	139
CC(=O)N1c2ccccc2[C@H](Oc2ccc(OCc3ccccc3)cc2)C[C@@H]1C (relative stereo) [Compound 64, cis-1-acetyl-4-(4-benzyloxyphenoxy)-2-methyl-1,2,3,4-tetrahydroquinoline]	113
CC1CC(Nc2ccc(F)cc2)c2cc(F)ccc2N1C(=O)C1CCCC1 (centres unmarked) [Compound 66, 1-cyclopentanecarbonyl-6-fluoro-2-methyl-4-[(4-fluorophenyl)amino]-1,2,3,4-tetrahydroquinoline]	151
COc1ccc2c(c1)N(C(C)=O)C(C)CC2Nc1ccccc1 (centres unmarked) [Compound 48, 1-acetyl-2-methyl-7-methoxy-4-phenylamino-1,2,3,4-tetrahydroquinoline]	139
CC(=O)N1c2c(F)cccc2[C@H](Oc2ccccc2)C[C@@H]1C (relative stereo) [Compound 33, cis-1-acetyl-8-fluoro-2-methyl-4-phenoxy-1,2,3,4-tetrahydroquinoline]	115
CC(=O)N1c2ccc(NS(C)(=O)=O)cc2C(Nc2ccc(N3CCOCC3)cc2)CC1C (centres unmarked) [Compound 98, 1-acetyl-6-methanesulfonylamino-2-methyl-4-[(4-morpholinophenyl)amino]-1,2,3,4-tetrahydroquinoline]	56
CC(=O)Nc1ccc2c(c1)C(Nc1ccc(Cl)cc1)CC(C)N2C(C)=O (centres unmarked) [Compound 96, 1-acetyl-6-acetylamino-4-[(4-chlorophenyl)amino]-2-methyl-1,2,3,4-tetrahydroquinoline]	530
CCOC(=O)c1ccc2c(c1)C(Nc1ccc(NS(C)(=O)=O)cc1)CC(C)N2C(C)=O (centres unmarked) [Compound 101, ethyl 1-acetyl-4-[(4-methanesulfonylaminophenyl)amino]-2-methyl-1,2,3,4-tetrahydroquinoline-6-carboxylate]	508
CC(=O)N1c2cc(F)ccc2[C@H](Oc2ccccc2)C[C@@H]1C (relative stereo) [Compound 32, cis-1-acetyl-7-fluoro-2-methyl-4-phenoxy-1,2,3,4-tetrahydroquinoline]	145
CC(=O)N1c2ccc(C(N)=O)cc2[C@H](Nc2ccc(NS(C)(=O)=O)cc2)C[C@@H]1C (relative stereo) [Compound 102, cis-1-acetyl-4-[(4-methanesulfonylaminophenyl)amino]-2-methyl-1,2,3,4-tetrahydroquinoline-6-carboxamide]	91
CC(=O)N1c2ccc(N3CC(C)OC(C)C3)cc2C(Nc2ccc(Cl)cc2)CC1C (stereo not drawn) [Compound 83, 1-acetyl-4-[(4-chlorophenyl)amino]-6-[(cis-3,5-dimethyl)morpholino]-2-methyl-1,2,3,4-tetrahydroquinoline]	282
COc1ccc2c(c1)C(Nc1ccc(F)cc1)CC(C)N2C(C)=O (centres unmarked) [Compound 37, 1-acetyl-4-[(4-fluorophenyl)amino]-2-methyl-6-methoxy-1,2,3,4-tetrahydroquinoline]	494

Compound	activity at 6 µM [%]
CC(=O)N1c2ccc(N3CCN(C(=O)C(C)C)CC3)cc2C(Nc2ccc(Cl)cc2)CC1C (centres unmarked) [Compound 84, 1-acetyl-4-[(4-chlorophenyl)amino]-6-[(4-isopropylcarbonyl)piperazino]-2-methyl-1,2,3,4-tetrahydroquinoline]	286
CC(=O)N1CCN(c2ccc3c(c2)C(Nc2ccc(N4CCOCC4)cc2)CC(C)N3C(C)=O)CC1 (stereo not drawn) [Compound 94, cis-1-acetyl-6-[(4-acetyl)piperazino]-2-methyl-4-[(4-morpholinophenyl)amino]-1,2,3,4-tetrahydroquinoline.3 hydrochloride]	199
CCOC(=O)Cc1ccc(NC2CC(C)N(C(C)=O)c3ccc(NS(C)(=O)=O)cc32)cc1 (centres unmarked) [Compound 99, 1-acetyl-6-methanesulfonylamino-2-methyl-4-[(4-ethoxycarbonylmethylphenyl)amino]-1,2,3,4-tetrahydroquinoline]	69
CC(=O)N1c2ccc(N3CCOCC3)cc2C(Nc2ccc(CC(=O)O)cc2)CC1C (centres unmarked) [Compound 89, 1-acetyl-4-[(4-carboxymethylphenyl)amino]-6-morpholino-2-methyl-1,2,3,4-tetrahydroquinoline]	154
CC(=O)N1c2ccc(N3CCN(C(=O)c4ccccc4)CC3)cc2C(Nc2ccc(Cl)cc2)CC1C (centres unmarked) [Compound 86, 1-acetyl-6-[(4-benzoyl)piperazino]-2-methyl-4-[(4-chlorophenyl)amino]-1,2,3,4-tetrahydroquinoline]	237
CC(=O)N1c2ccccc2C(Oc2ccc([N+](=O)[O-])cc2)CC1C (centres unmarked) [Compound 67, 1-acetyl-2-methyl-4-(4-nitrophenoxy)-1,2,3,4-tetrahydroquinoline]	119
CC(=O)N1c2ccc(N3CC(C)OC(C)C3)cc2C(Nc2ccc(NS(C)(=O)=O)cc2)CC1C (stereo not drawn) [Compound 110, 1-acetyl-6-[cis-2,6-dimethylmorpholin-4-yl]-4-[(4-methanesulfonylaminophenyl)amino]-2-methyl-1,2,3,4-tetrahydroquinoline.2 hydrochloride]	211
CC(=O)N1c2ccc(-c3nc(=O)o[nH]3)cc2C(Nc2ccc(Cl)cc2)CC1C (centres unmarked) [Compound 120, 1-acetyl-4-[(4-chlorophenyl)amino]-2-methyl-6-[1,2,4-oxadiazol-5(2H)-on-3-yl]-1,2,3,4-tetrahydroquinoline]	188
CC(=O)N1c2ccc(F)cc2[C@H](Oc2ccccc2)C[C@@H]1C (relative stereo) [Compound 35, cis-1-acetyl-6-fluoro-2-methyl-4-phenoxy-1,2,3,4-tetrahydroquinoline]	287
CC(=O)N1c2ccc(C(=O)NN)cc2C(Nc2ccc(Cl)cc2)CC1C (centres unmarked) [Compound 115, 1-acetyl-4-[(4-chlorophenyl)amino]-2-methyl-1,2,3,4-tetrahydroquinoline-6-carbohydrazide]	163
CC(=O)N1CCN(c2ccc3c(c2)C(Nc2ccc(CC(=O)O)cc2)CC(C)N3C(C)=O)CC1 (centres unmarked) [Compound 91, 1-acetyl-6-(4-acetylpiperazinyl)-4-[(4-carboxymethylphenyl)amino]-2-methyl-1,2,3,4-tetrahydroquinoline]	130
CC(=O)N1c2ccc(N3CCN(C(=O)NC(C)C)CC3)cc2C(Nc2ccc(Cl)cc2)CC1C (centres unmarked) [Compound 88, 1-acetyl-4-[(4-chlorophenyl)amino]-6-[4-(isopropylaminocarbonyl)piperazino]-2-methyl-1,2,3,4-tetrahydroquinoline]	112
CC(=O)N1c2ccc(C(=O)O)cc2C(Nc2ccc(F)cc2)CC1C (centres unmarked) [Compound 100, 1-acetyl-4-[(4-fluorophenyl)amino]-2-methyl-1,2,3,4-tetrahydroquinoline-6-carboxylic acid]	105
COc1cccc2c1N(C(C)=O)C(C)CC2Nc1ccccc1 (centres unmarked) [Compound 61, 1-acetyl-4-phenylamino-8-methoxy-2-methyl-1,2,3,4-tetrahydroquinoline]	132
CC(=O)N1c2ccc(NCCO)cc2C(Nc2ccc(Cl)cc2)CC1C (centres unmarked) [Compound 82, 1-acetyl-4-[(4-chlorophenyl)amino]-6-[(2-hydroxy)ethylamino]-2-methyl-1,2,3,4-tetrahydroquinoline]	325
CC(=O)N1c2ccccc2[C@H](Nc2ccccc2C(=O)O)C[C@@H]1C (relative stereo) [Compound 109, cis-1-acetyl-4-[(2-carboxyphenyl)amino]-2-methyl-1,2,3,4-tetrahydroquinoline]	229
CC(=O)N1c2ccc(C(N)=O)cc2[C@H](Nc2ccc(CC(N)=O)cc2)C[C@@H]1C (relative stereo) [Compound 106, cis-1-acetyl-4-[(4-carbamoylmethylphenyl)amino]-2-methyl-1,2,3,4-tetrahydroquinoline-6-carboxamide]	227
